Measured values reported in US12605442B2 (priority 2020, dated 2026).
Entries after “also recorded” stand apart in the source; their conditions may differ.

Assays:
[1] = system: MERS CoV; settings: riboflavin 50 micromolar and UV light, six minutes, plasma; cited from earlier work
[2] = system: SARS-CoV-2; assay: SARS-CoV-2 inactivation in Mirasol device; settings: 50 μM riboflavin
[3] = system: recombinant AAV; assay: AAV particle size by dynamic light scattering; format: physicochemical
[4] = system: recombinant adeno-associated virus (AAV); settings: reagent alone, room temperature, 2 hours
[5] = rats
[6] = system: lentivirus; assay: lentivirus inactivation by photosensitizer and UV light

SMILES	MERS coronavirus titers [1]	Log Reduction in viral titer ([2]; 100 Joules UV in 19 seconds, 100 mLs, limit of detection 1.0 Log per mL)	inactivation of SARS-CoV-2 ([2]; about 100 Joules UV, to the limit of detection)	average hydrodynamic radius of viral aggregates ([3]; 50 μM riboflavin and UV light, later time points)	infectious titer of recombinant AAV [4]	toxicity of residual riboflavin remaining after viral inactivation [5]	time to complete inactivation of lentivirus ([6]; 50 μM riboflavin in the presence of UV light)	change in particle size distribution ([3]; 1.5 mM psoralen and UV light)	time to inactivation of lentivirus ([6]; 1.5 mM psoralen and UV light)
Cc1cc2nc3c(=O)[nH]c(=O)nc-3n(C[C@H](O)[C@H](O)[C@H](O)CO)c2cc1C [riboflavin]	reduction	greater than 4.2 Log	Complete inactivation; also recorded: completely inactivated	greater than 60 nm	reduce the infectious titer	does not induce toxicity	≤ 20 min	–	–
O=c1ccc2cc3ccoc3cc2o1 [psoralen]	–	–	–	–	reduce the infectious titer	–	–	No significant change in particle size distribution	approximately 2 hours
